Values quoted from earlier work in publication PMC7504348 (Molecules, 2020).

system: AChE; settings: dataset for 2D-QSAR model, Ellman's method, galantamine as reference; cited from earlier work

Compound | pIC50 (AChE dataset, Table S4)
Fc1ccccc1/C=C1\CNCC2=C1NC(=S)NC2c1ccccc1F (centres unmarked) [CHEMBL2385777] | 4.34
O=C(Nc1ccccc1)Nc1nc(-c2cc3cc(Br)ccc3o2)cs1 [CHEMBL3617382] | 4.63
COc1cc2ccnc3c2c(c1OC)-c1ccccc1C3=O [CHEMBL510090] | 4.72
CC1=NCCc2c1[nH]c1cc(O)ccc21 [CHEMBL129177] | 4.47
COc1cc(/C=C/c2ccc(OCCCCCCN3CCCCC3C)cc2)cc(OC)c1 (centres unmarked) [CHEMBL3133246] | 5.45
COc1cc(/C=C/c2ccc(OCCCCCCN3CCCCC3)cc2)cc(OC)c1 [CHEMBL3133245] | 5.36
O=C(Nc1ccc(F)cc1)Nc1nc(-c2cc3ccccc3o2)cs1 [CHEMBL3617372] | 4.26
CC(C)[C@H](NC(=O)OCCBr)C(=O)N[C@H](C)c1nc2ccc(F)cc2s1 [CHEMBL2334747] | 4.51
CCC[C@H](NC(=O)OCC(F)(F)F)C(=O)N[C@H](C)c1nc2ccc(F)cc2s1 [CHEMBL2334737] | 4.71
COc1ccc(C2NC(=O)NC(CCc3ccc(O)c(OC)c3)=C2C(=O)CCc2ccc(O)c(OC)c2)cc1 (centres unmarked) [CHEMBL2381434] | 4.67
O=C(O[C@H]1[C@H](Oc2ccc(/C=N/O)cc2)OC[C@@H](OC(=O)c2ccccc2)[C@H]1OC(=O)c1ccccc1)c1ccccc1 [CHEMBL500712] | 4.40
CCC[C@H](NC(=O)OCC(Cl)(Cl)Cl)C(=O)N[C@H](C)c1nc2ccc(F)cc2s1 [CHEMBL2334736] | 4.72
COc1cc(/C=C/c2ccc(OCCCCCCN3CCOCC3)cc2)cc(OC)c1 [CHEMBL3133248] | 4.66
CCN(CC)Cc1ccc(OCCCCCCCCCCN2CCCCC2)cc1 [CHEMBL1085869] | 5.67
CCCN(CCC)CCCCCCOc1ccc(/C=C/c2cc(OC)cc(OC)c2)cc1 [CHEMBL3133243] | 4.97
Cc1ccc(NC(=O)Nc2nc(-c3cc4cc(Br)ccc4o3)cs2)cc1 [CHEMBL3617381] | 4.49
COc1ccccc1/C=C1\CNCC2=C1NC(=O)NC2c1ccccc1OC (centres unmarked) [CHEMBL2385766] | 4.35
O=C(Nc1ccc(F)cc1)Nc1nc(-c2cc3cc(Br)ccc3o2)cs1 [CHEMBL3617388] | 4.45
CN(C)CCc1c[nH]c2ccc(O)cc12 [CHEMBL416526] | 4.94
COC(=O)[C@@H]1CCCN1CCCCCOc1ccc2c(=O)cc(-c3ccccc3)oc2c1C [CHEMBL2393074] | 4.75
O=[N+]([O-])c1cccc(/C=C2\CNCC3=C2NC(=S)NC3c2cccc([N+](=O)[O-])c2)c1 (centres unmarked) [CHEMBL2385779] | 4.42
O=C(Nc1ccc(Cl)c(Cl)c1)Nc1nc(-c2cc3ccccc3o2)cs1 [CHEMBL3617375] | 4.28
CCc1ccc(N(Cc2ccccc2)C(=O)/C=C/C(=O)N(Cc2ccccc2)c2ccc(CC)cc2)cc1 [CHEMBL2296113] | 4.21

Compound | pIC50 (AChE dataset, Table S4)
CC(C)NCc1cccc2[nH]c3cc(O)ccc3c12 [CHEMBL3127219] | 4.92
COc1cc(/C=C/c2ccc(OCCCCCCN(C)Cc3ccccc3)cc2)cc(OC)c1 [CHEMBL3132866] | 4.98
COc1ccc(NC(=O)Nc2nc(-c3cc4cc([N+](=O)[O-])ccc4o3)cs2)cc1 [CHEMBL3617393] | 4.47
COc1ccc2c(c1)[nH]c1c(C)nccc12 [CHEMBL269538] | 4.19
COc1ccccc1NC(=O)Nc1nc(-c2cc3ccccc3o2)cs1 [CHEMBL3617362] | 4.22
CCN(CC)Cc1cccc2[nH]c3cc(OC)ccc3c12 [CHEMBL3127217] | 4.99
CC(=O)OC[C@H]1O[C@@H](Oc2ccc(/C=N/NC(N)=S)cc2)[C@H](OC(C)=O)[C@@H](OC(C)=O)[C@@H]1OC(C)=O [CHEMBL517342] | 4.19
O=C(Nc1ccc(Cl)cc1)Nc1nc(-c2cc3cc([N+](=O)[O-])ccc3o2)cs1 [CHEMBL3617397] | 4.52
CCOc1ccc(N(Cc2ccccc2)C(=O)/C=C/C(=O)N(Cc2ccccc2)c2ccc(OCC)cc2)cc1 [CHEMBL2296117] | 4.18
COc1ccc2c(c1)[nH]c1cccc(CNC(C)C)c12 [CHEMBL3127216] | 4.84
CCC[C@H](NC(=O)OCC)C(=O)N[C@H](C)c1nc2ccc(F)cc2s1 [CHEMBL2334730] | 4.64
Cc1ccc(CN(C(=O)/C=C/C(=O)N(Cc2ccc(C)cc2)c2ccc(I)cc2)c2ccc(I)cc2)cc1 [CHEMBL2296125] | 4.46
Cc1nccc2c1[nH]c1ccccc12 [CHEMBL12014] | 4.23
S=C1NC2=C(CNC/C2=C\c2ccc(Br)cc2)C(c2ccc(Br)cc2)N1 (centres unmarked) [CHEMBL2385780] | 4.88
O=C(Nc1nc(-c2cc3ccccc3o2)cs1)Nc1ccccc1F [CHEMBL3617370] | 4.51
OC[C@H]1O[C@@H](Oc2ccc(/C=N/O)cc2)[C@H](O)[C@@H](O)[C@@H]1O [CHEMBL457684] | 4.78
CCC[C@H](NC(=O)OC(C)C)C(=O)N[C@H](C)c1nc2ccc(F)cc2s1 [CHEMBL2334732] | 4.86
Cc1ccc(CN(C(=O)/C=C/C(=O)N(Cc2ccc(C)cc2)c2ccc(F)cc2)c2ccc(F)cc2)cc1 [CHEMBL2296124] | 4.33
COc1ccc2c(ccc[n+]2C)c1.[I-] [CHEMBL2018160] | 4.63
c1ccc(CNc2ccccc2)cc1 [CHEMBL237223] | 4.59
O=C1NC2=C(CNC/C2=C\c2ccc(Cl)cc2Cl)C(c2ccc(Cl)cc2Cl)N1 (centres unmarked) [CHEMBL2385772] | 4.48
CC(C)[C@H](NC(=O)OCC(F)(F)F)C(=O)N[C@H](C)c1nc2ccc(F)cc2s1 [CHEMBL2334726] | 4.49
CO/N=C\c1ccc(O[C@@H]2O[C@H](COC(C)=O)[C@@H](OC(C)=O)[C@H](OC(C)=O)[C@H]2OC(C)=O)cc1 [CHEMBL463856] | 4.33

Compound | pIC50 (AChE dataset, Table S4)
CC(C)[C@H](NC(=O)OCC(Cl)(Cl)Cl)C(=O)N[C@H](C)c1nc2ccc(F)cc2s1 [CHEMBL2334725] | 4.70
COc1cc(CCC(=O)C2=C(CCc3ccc(O)c(OC)c3)NC(=O)NC2c2ccc(O)cc2)ccc1O (centres unmarked) [CHEMBL2381433] | 4.58
S=C1NC2=C(CNC/C2=C\c2ccc(Cl)cc2Cl)C(c2ccc(Cl)cc2Cl)N1 (centres unmarked) [CHEMBL2385784] | 4.53
COc1cc2c(cc1O)C=[N+](C)CC2.O=C([O-])C(F)(F)F [CHEMBL1270150] | 4.73
O=C1NC2=C(CNC/C2=C\c2cccc3ccccc23)C(c2cccc3ccccc23)N1 (centres unmarked) [CHEMBL2385773] | 4.83
COc1cc(/C=C/c2ccc(OCCCN(C)Cc3ccccc3)cc2)cc(OC)c1 [CHEMBL3133250] | 4.29
O=C(Nc1nc(-c2cc3ccccc3o2)cs1)Nc1ccccc1[N+](=O)[O-] [CHEMBL3617367] | 4.38
CCOC(=O)c1c(C)nc2nc3c(c(N)c2c1-c1ccccc1)CCCC3 [CHEMBL253386] | 5.49
O=C1NC2=C(CNC/C2=C\c2ccc(Br)cc2)C(c2ccc(Br)cc2)N1 (centres unmarked) [CHEMBL2385768] | 4.75
CCC[C@H](NC(=O)OCC(F)(F)C(F)(F)C(F)(F)F)C(=O)N[C@H](C)c1nc2ccc(F)cc2s1 [CHEMBL2334739] | 4.52
CCc1ccc(N(Cc2ccc(C)cc2)C(=O)/C=C/C(=O)N(Cc2ccc(C)cc2)c2ccc(CC)cc2)cc1 [CHEMBL2296112] | 4.25
CCC[C@H](NC(=O)OCC(F)(F)C(F)F)C(=O)N[C@H](C)c1nc2ccc(F)cc2s1 [CHEMBL2334738] | 4.69
COc1cccc2c1C(=O)c1c(C)cc(=O)[nH]c1C2=O [CHEMBL1269160] | 4.57
CC(C)COC(=O)N[C@H](C(=O)N[C@H](C)c1nc2ccc(F)cc2s1)C(C)C [CHEMBL2334745] | 4.49
O=C(Nc1ccc(F)cc1)Nc1nc(-c2cc3cc([N+](=O)[O-])ccc3o2)cs1 [CHEMBL3617396] | 4.39
COc1cc(/C=C/c2ccc(OCCCCCCN3CCC(O)CC3)cc2)cc(OC)c1 [CHEMBL3133247] | 4.81
CC(C)[C@H](NC(=O)OCC(F)(F)C(F)(F)C(F)(F)F)C(=O)N[C@H](C)c1nc2ccc(F)cc2s1 [CHEMBL2334728] | 4.24
COc1ccc2c3c([nH]c2c1)C(C)=NCC3 [CHEMBL340807] | 4.80
COc1ccc(NC(=O)Nc2nc(-c3cc4cc(Br)ccc4o3)cs2)cc1 [CHEMBL3617380] | 4.49
CCN(CC)Cc1cccc2oc3cc(OC)ccc3c12 [CHEMBL3127043] | 4.98
COc1cc2c(cc1O)C[N@+]1(C)CCc3cc(OC)c(OC)cc3[C@@H]1C2 [CHEMBL1270255] | 5.01
CC(C)[C@H](NC(=O)OCC(F)(F)C(F)F)C(=O)N[C@H](C)c1nc2ccc(F)cc2s1 [CHEMBL2334727] | 4.72
